From patent US20240398806A1, “Compositions For and Methods of Treating and/or Preventing Pain” (Duke University, priority 2021, published 2024)

What was measured:
Pharmacokinetics in rat = assay type: in vivo
lamina IIo neurons = system: lamina IIo neurons; parameters: dose or concentration left out as unconfirmed; conditions: slices of PTX-treated mice
[1] = global β-arrestin2 KO mice; cited from earlier work
[2] = Pharmacokinetics in mouse; assay type: in vivo
[3] = Cocaine- and methamphetamine-induced hyperlocomotion, open field; assay type: in vivo, mice (C57BL/6J background); conditions: 12 mg/kg i.p., WT mice
Procedure: (§1) Once stable performance was achieved, self-administration was assessed once daily in 60 min sessions. Animals received vehicle (saline, i.p.) or SBI-553 (2, 6, or 12 mg/kg, i.p.) immediately prior to placement into self-administration chambers with access to cocaine at doses of 0.1, 0.3, 0.5, or 1 mg/kg/infusion. FIG. 7B-FIG. 7C show cocaine-induced and methamphetamine-induced hyperlocomotion.
Open-field testing is used to analyze animal movement. The Accuscan open field (Omnitech Electronics, Inc.) was used to assess locomotor activity as previously described (Toth et al., 2018: Slosky L M, et al. (2020)). Here, animal movement is determined by the breaking of gridded photocell beams.
(§2) The effect of SBI-553 on cocaine self-administration was both cocaine-dose dependent and SBI-553-dose dependent. […] In the presence of β-arrestin2, SBI-553 reduced activity in mice. A 12 mg/kg (i.p.) dose of SBI-553 decreased both cocaine-and methamphetamine-induced hyperlocomotion in wild-type (WT) mice on a C57BL/6J background (FIG. 7B-FIG. 7C). […] Conversely, a significant reduction in locomotion was absent in global β-arrestin2 KO mice (Slosky L M, et al. (2020) Cell. 181(6):1364-1379e14).

[4] = Core body temperature measurement; assay type: in vivo, C57BL/6J mice
Procedure: Core body temperatures were recorded from age-matched male and female C57BL/6J mice prior to treatment (Time 0) and 30 min, 60 min, 120 min, and 300 min post-treatment using a rectal probe thermometer for mice (Thermalert Model TH-8, Physitemp Instruments, Inc., Clifton, NJ). On three days of the week leading up to the study, animals were handled and temperatures were taken to acclimate the animals to the procedure.
(§3) SBI-553 treatment was not associated with hypothermia or hypotension. In addition to modulating motivated behavior. […] SBI-553 (at 2-30 mg/kg, i.p.) had no effect on core body temperature (FIG. 6B). […] This was an effect not secondary to hypothermia as body temperature was maintained by thermal support. These findings indicate that a Gq protein-dependent mechanism mediates NTSR1-associated side effects and is not engaged by SBI-553. Consistent with an antagonist like action at NTSR1.

[5] = Central blood pressure (systolic ventricular pressure) in anesthetized mice; assay type: in vivo, C57BL/6J mice; conditions: 12 mg/kg, i.p.
Procedure: as §3

NTSR1 = NTSR1 (Homo sapiens, UniProt P30989); test: Confocal β-arrestin2 translocation assay in U2OS cells expressing NTSR1 and β-arrestin2-GFP; assay type: cell-based; parameters: expressed in transfected cells; also transient transfection; conditions: compared with NT
Sequence of NTSR1 (P30989 whole entry): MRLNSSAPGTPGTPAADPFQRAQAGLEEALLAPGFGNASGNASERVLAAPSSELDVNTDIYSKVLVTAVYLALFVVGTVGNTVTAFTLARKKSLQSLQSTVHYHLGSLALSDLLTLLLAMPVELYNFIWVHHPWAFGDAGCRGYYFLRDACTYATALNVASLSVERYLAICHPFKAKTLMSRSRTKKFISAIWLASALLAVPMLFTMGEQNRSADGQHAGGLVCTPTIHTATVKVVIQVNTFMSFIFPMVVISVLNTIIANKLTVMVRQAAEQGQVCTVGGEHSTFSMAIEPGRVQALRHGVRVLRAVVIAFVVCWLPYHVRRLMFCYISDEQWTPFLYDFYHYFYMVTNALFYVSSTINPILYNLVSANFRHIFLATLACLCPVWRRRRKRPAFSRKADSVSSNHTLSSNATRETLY
Sequence of NTSR1 (P32121 whole entry partner): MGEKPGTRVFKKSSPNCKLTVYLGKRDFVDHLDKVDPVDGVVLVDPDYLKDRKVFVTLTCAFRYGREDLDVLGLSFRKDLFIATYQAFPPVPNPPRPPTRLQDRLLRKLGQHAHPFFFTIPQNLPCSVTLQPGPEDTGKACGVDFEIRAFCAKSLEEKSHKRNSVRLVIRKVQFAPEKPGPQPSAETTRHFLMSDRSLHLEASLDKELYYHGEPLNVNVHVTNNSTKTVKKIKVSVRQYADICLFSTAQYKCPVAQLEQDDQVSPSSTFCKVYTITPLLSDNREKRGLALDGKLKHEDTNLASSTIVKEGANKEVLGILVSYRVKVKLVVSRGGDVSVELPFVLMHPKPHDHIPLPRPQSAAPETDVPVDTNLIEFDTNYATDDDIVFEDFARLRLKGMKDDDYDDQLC
Procedure: Scale bar, […]. […] The ordinate axis in counts per minute (CPM) represents specifically bound ^125I-NT. In each experiment, the assays were conducted in quadruplicate, and data are expressed as the mean+SEM (n=4 separate experiments) and were analyzed using one-way ANOVA with Tukey's multiple comparison post hoc test. Curve fitting and statistical analyses were performed using GraphPad Prism V5.04.
The translocation of β-arrestin2 to the membrane by NTSR1 was assessed using a U2OS cell line permanently expressing the NTSR1 and green fluorescent protein (GFP) tagged-β-arrestin2, as described (Barak et al., 2016). Briefly, on day 1, stable cells were split into MGB101-1-2-LG glass-bottom 384-well plates (MatriCal, Spokane, WA, USA). Each well contained 30) mL aliquots of 8,000 cells in Minimum Eagle's medium (MEM) containing 10% fetal bovine serum (FBS) and 100 U/mL penicillin/streptomycin (Life Technologies, Grand Island, NY, USA). The plates were incubated overnight at 37°° C, in 5% CO2, and on the following day the media was changed to […] serum-and phenol red-free MEM. […] After treatment, plates were returned to the incubator for 40 min. […] Images were analyzed using a wavelet algorithm to measure formation of fluorescence aggregates (Evron et al., 2014). […] Analyzed image results were visually confirmed. […]

[6] = Plantar incision-induced post-operative pain (mechanical allodynia) in WT and Arrb2 KO mice; assay type: in vivo; conditions: 12 mg/kg IP
[7] = Paclitaxel (PTX)-induced mechanical allodynia, von Frey paw withdrawal threshold; conditions: i.t., 1 mg≈2 nmol as printed
[8] = Intravenous cocaine self-administration; assay type: in vivo, mice; conditions: 2, 6 or 12 mg/kg i.p.; cocaine 0.1-1 mg/kg/infusion
Procedure: as §1, §2

[9] = brain, 30 mg/kg, 30 mpk po (pa [sic]), 1 h, read-out: brain:plasma @ 1 h
[10] = plasma, 30 mg/kg, 5 mpk iv and 30 mpk po

- CIp (Pharmacokinetics in rat; 5 mpk iv (printed tv)): 81 mL/min/kg
- Vd (Pharmacokinetics in rat; 5 mpk iv (printed tv)): 7.02 L/kg
- Cmax (Pharmacokinetics in rat; 30 mpk po (pa [sic])): 3482 ng/mL
- T2/2 (Pharmacokinetics in rat; 30 mpk po (pa [sic])): 2.23 h
- Kp at 1 h (Pharmacokinetics in rat; [9]): 0.98
- bioavailability (Pharmacokinetics in rat; [10]): 48%
- AUC (Pharmacokinetics in rat; route not marked): 2693 ng·h/mL
- CIp ([2]; 5 mpk iv (printed tv)): 44.8 mL/min/kg
- Vd ([2]; 5 mpk iv (printed tv)): 6.16 L/kg
- Cmax ([2]; 30 mpk po (pa [sic])): 1460 ng/mL
- T2/2 ([2]; 30 mpk po (pa [sic])): 5.28 h
- Kp at 1 h [2, 9]: 54
- bioavailability [2, 10]: 45%
- AUC ([2]; route not marked): 4824 ng·h/mL
- Core body temperature ([4]; 2-30 mg/kg, i.p.): no effect
- Intracellular translocation of β-arrestin (NTSR1): as effective as NT
SMILES: COc1ccccc1C1CCN(c2nc(C3(F)CC3)nc3ccc(N(C)CCO)cc23)CC1 [SBI-553]
- Excitatory synaptic transmission (sEPSCs) in lamina IIo neurons (lamina IIo neurons): significantly suppressed
- Significant reduction in locomotion [1]: absent
- Cocaine-induced hyperlocomotion ([3]; cocaine 30 mg/kg i.p.): decreased
- Methamphetamine-induced hyperlocomotion ([3]; methamphetamine 2 mg/kg i.p.): decreased
- Reversal of PD149163-associated decrease in body temperature ([4]; pretreatment p.o. 30 min prior to PD149163 (i.p.)): dose-dependently reversed
- Hemodynamic parameters versus vehicle [5]: no differences
- Duration of analgesic effect [6]: more than 4.5 hr
- Time after injection at which analgesic effect was observed [6]: 2 h
- Plantar incision-induced mechanical allodynia ([6]; Arrb2 KO mice): not
- Plantar incision-induced mechanical allodynia ([6]; WT mice): significantly reduced
- Duration of reduction of mechanical allodynia [7]: > 24 h
- PTX-induced mechanical allodynia (increased PWT) versus vehicle ([7]; four weeks after PTX): significant reduction of mechanical allodynia
- Cocaine self-administration [8]: maintenance intake reduction
